Entries after “also recorded” stand apart in the source; their conditions may differ.
Key:
CCR5 locus in PSCs = test: Single cell cloning of PSCs gene targeted at CCR5 locus; assay type: cell-based, human
Description: Allelic gene targeting efficiency was unaffected by pretreatment with AZD7648 with or without post treatment when compared to the corresponding controls.
For single cell cloning, gene targeted PSCs were plated at a density of 250 cells per well of a 6-well plate in mTeSR1 medium supplemented with 1× CloneR™2 ([…] technologies, cat: 100-0691) and incubated at 37° C. for 2 days. After 2 days, medium was switched to fresh mTeSR1 medium supplemented with 1× CloneR™2. 2 days later, the cells were switched to and maintained in mTeSR1 medium with daily media changes. At D7-D10, single cell colonies were picked by scraping and were then propagated individually. Gene targeting was assessed in single cell clones by ddPCR as mentioned above and by PCR amplifying the region spanning the knock-in to determine the frequency of mono-, bi-allelic and non-targeted clones.

STING1 locus in PSCs = test: RNP/AAV6 gene targeting at STING1 locus (V155M) in PSCs; assay type: cell-based, human
Description: In comparison, the untreated cells had around 30% INDELs (FIG. 4D-E).
For this, we tested gene targeting at the STING1 locus to introduce a point mutation (V155M) associated with an autoinflammatory disease called STING-associated vasculopathy with onset in infancy (SAVI)^86 (FIG. 12a). […] To test the feasibility of building a primary cell SAVI model, we next performed the STING1 gene targeting in human CD34+ HSPCs.
PSC culture and genome editing. Gene editing experiments were performed with three PSC lines: H9 embryonic stem cells (ESC) (WiCell) and the previously described 1205-4 and 1208-2 iPS cell lines^106. PSCs were maintained in feeder free conditions on Matrigel (corning, cat: 354277) coated plates in mTeSR1 medium ([…] technologies, cat: 85850). For gene editing, 24 h prior to nucleofection PSCs were pretreated with 10 μM of Y27632 (Cayman Chemical, cat: 10005583). […] PSCs were dissociated into single cells using Accutase (Innovative Cell Technologies, cat: AT104). […] Resuspended cells were added to one well of a 16-well Nucleocuvette Strip (Lonza) and nucleofection was performed in the 4D nucleofector (Lonza) using the program, CA137. […] Gene targeting efficiency was analyzed at 4-6 days post-editing.
ICE analysis for quantification of gene editing.

[1] = tested on: TRAC gene locus in T cells; conditions: 0.5 μM; AAV6 MOI 1250 and 2500
Text: (FIG. 34d). Next, we tested the effect of compound treatment when titrating down the AAV6 donor amounts for gene targeting at the CCR5 locus. […] For this, we assessed the CD19-CAR knock-in at the TRAC gene locus in T cells using a previously reported gene editing strategy^87 (FIG. 14c).

human primary cells = test: Gene targeting across different genomic loci and primary cell types (summary statements); assay type: cell-based; conditions: in some examples
Text: Nuclease-based genome editing can result in either site-specific insertions/deletions (INDELs) or targeted integrations depending on which pathway of natural DNA double-strand break repair is harnessed: non-homologous end-joining (NHEJ), microhomology mediated end-joining (MMEJ) or homology-directed repair (HDR).

HSPCs = test: Colony forming units (CFU) assay and genotyping of CCR5 gene targeted HSPCs; assay type: cell-based, human; conditions: for colonies with bi-allelic HDR knock-in: untreated 9%
Description: Colony forming units assay and genotyping of clones. For colony forming units (CFU) assay, 250 to 500 HSPCs were plated in SmartDish 6-well plates ([…] Technologies, cat: 27370) containing MethoCult H4434 Classic ([…] Technologies, cat: 04444). After 14 days, colonies were counted and scored using STEMvision automated counter ([…] Technologies) to determine the number of BFU-E, CFU-M, CFU-GM, and CFU-GEMM colonies. To determine the ratio of monoallelic vs biallelic integration, individual colonies of each type were picked and genomic DNA was extracted with QE. ddPCR was used to determine the clones with mono- vs bi-allelic integration as mentioned. WT and INDEL frequencies in the clones were determined using ICE analysis.

What does the source list for `Cc1cc2ncnn2cc1Nc1ncc2c(n1)n(C1CCOCC1)c(=O)n2C` [AZD7648, 7-methyl-2-((7-methyl-[1,2,4]triazolo[l,5-a]pyridin-6-yl)amino)-9-(tetrahydro-2H-pyran-4-yl)-7,9-dihydro-8H-purin-8-one]?
clones with bi-allelic knock-in (CCR5 locus in PSCs; 0.1 μM): 60%; clones with bi-allelic knock-in (CCR5 locus in PSCs; 0.5 μM, untreated 30%): 90%; INDELs after gene targeting (STING1 locus in PSCs; active gRNA (sg3)): without INDELs; also recorded: no INDELs; INDELs after gene targeting (STING1 locus in PSCs; seemingly inactive gRNA (sg5), 0.5 μM): without indels; also recorded: no INDELs; increase in frequency of CD19-CAR+ T cells vs untreated [1]: 1.4 fold; increase in HDR (human primary cells): up to 50 fold; total colony number and colony type distribution (HSPCs; 0.5 μM): did not cause further decrease in total colony number nor a change in the colony type distribution; increase of colonies with bi-allelic HDR knock-in (HSPCs; BFU-E and CFU-GM, 0.5 μM): more than 7 fold; colonies with bi-allelic HDR knock-in (HSPCs; BFU-E): 67%; colonies with bi-allelic HDR knock-in (HSPCs; CFU-GM): 78%
